Patent US9234025B2, “Extracellular allosteric inhibitor binding domain from a tyrosine kinase receptor” (SANOFI, priority 2009, dated 2016)

What was measured:
[1] = target: T1, FGF1 (Homo sapiens, UniProt P05230); assay: ITC or STD-NMR, FGF1; assay type: binding
T1 construct: FGF1 (amino acids: 16-155); made in house
Method: The extracellular domain (ECD; amino acids: 39-358) of the human FGFR1 gene (P11362) was PCR amplified and cloned into E. coli vector pETTEV (with a N-terminal His-tag followed by a TEV protease cleavage site), using NdeI and BamHI restriction sites. For protein production, the resulting plasmid (pET FGFR1 D1D2D3) was transformed into E. coli BL21(DE3) (Novagene). Cells were grown at 37° C. until the OD600 reached 0.6 and recombinant protein production was induced by adding 1 mM IPTG (isopropyl-b-D-thiogalactopyranoside). After 4 hours induction, cells were harvested and stored at −80° C. until usage. The cell pellet (1 L culture) was thawed and resuspended in 50 ml buffer 1 (20 mM Tris/HCl, pH 7.5, 200 mM NaCl) containing lysozyme (2 mg), and 40 U benzonase (Merck). […] Complex formation was analyzed by size exclusion chromatography and subsequent analysis on SDS-PAGE.
All STD- and 1D-NMR experiments were carried out on a BRUKER three-channel DRX600 and on a BRUKER four-channel DRX800 spectrometer at the standard temperature of 298 K and were referenced to the internal standard 3-Trimethyl-2,2,3,3-tetradeuteropropionate-sodium salt (TSP). […] For protein ligand 1D STD NMR measurements spectra were recorded with 1 mM ligand SSR128129E (100 mM DMSO stock solution) and […] protein with weak 2s RF irradiation on separated protein methyl resonances. […]

[2] = target: T2, FGFR2^∂23 (Homo sapiens, UniProt P21802); assay: Fourier transform infrared (FTIR) measurement, FGFR2 D2-3; conditions: maximum around 1,640 cm^−1, 100 μM SSR
T2 construct: FGFR2^∂23 (consisting of domain D2 and 3); made in house
T2 sequence (P21802 148-366 limits assumed): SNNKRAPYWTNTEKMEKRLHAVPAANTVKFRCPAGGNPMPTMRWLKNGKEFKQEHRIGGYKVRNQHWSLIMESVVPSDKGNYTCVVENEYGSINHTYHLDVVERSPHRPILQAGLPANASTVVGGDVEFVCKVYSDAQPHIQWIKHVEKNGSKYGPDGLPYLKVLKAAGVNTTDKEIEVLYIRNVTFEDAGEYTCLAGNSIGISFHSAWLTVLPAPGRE
Method: Fourier transform infrared measurements were performed using a Bruker Tensor 37 FT-IR spectrometer equipped with an AquaSpec flowcell. The sample compartment was thermostatted to 25° C., 100 spectra were averaged for a good signal to noise ratio. Proteins were purified as described above. Immediately after the gelfiltration, the proteins were dialysed overnight in the same preparation of buffer (10 mM Hepes pH 7.2, 150 mM NaCl) in the presence or absence of SSR. Dialysis buffer samples were used to substract background signal. The analysis was performed using the OPUS software package, provided by Bruker. Interpretation of the results was performed as described {Barth, 2002 #60}.

[3] = target: FGFR2^∂23-Y328D (Homo sapiens, UniProt P21802, Y328D); assay: ITC, FGFR2 Y328D mutant; assay type: binding; set-up: FGFR2^∂23 (consisting of domain D2 and 3); made in house
FGFR2^∂23-Y328D, sequence (P21802 148-366 Y328D limits assumed): as the sequence (P21802 148-366 limits assumed) above, with Y181D counted along it
Method: All calorimetric experiments were performed at 30° C. with a VP-ITC titration calorimeter (MicroCal Inc., Northampton, Mass.) as previously described^45. Titrations involved the addition of 10 μL aliquots of 1.25 mM SSR via a rotating stirrer-syringe to the solution cell containing 1.407 mL of the 10-20 μM interacting protein (i.e. FGFR2^∂123, FGFR2^∂23 and its described mutants and subdomains, FGFR3^∂123, FGF1, FGF2 and Follistatin (as negative control) at 4 min intervals. A constant stirring speed of 300 rpm was maintained and data were fitted to the standard noninteracting one site model supplied by MicroCal, with n fixed as 1.0. All measurements were performed in 10 mM HEPES pH7.2, 150 mM NaCl, and proteins were purified as previously described (Pellegrini et al., 2000). Mutagenesis was performed using the ‘site directed mutagenesis kit’ (Stratagene).
We next explored whether SSR bound to amino acid residues that form part of the orthosteric site in D3 or to an alternative allosteric site. Initially, we used the molecular docking algorithms of the software packages MOLEGRO, Autodock and YASARA and available crystallographic data. […] We also analyzed the FTIR spectrum of the aforementioned mutated FGFR2 fragments.

T1 sequence (P05230 16-155, species assumed): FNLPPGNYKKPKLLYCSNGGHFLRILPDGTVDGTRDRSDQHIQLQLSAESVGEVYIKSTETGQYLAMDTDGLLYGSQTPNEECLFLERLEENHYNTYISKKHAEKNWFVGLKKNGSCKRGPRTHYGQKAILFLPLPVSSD

COc1c(C)c(C(=O)c2ccc(N)c(C(=O)[O-])c2)n2ccccc12.[Na+] [SSR]
binding to FGF1 [1]: failed to bind
change of FTIR spectrum (conformational change) [2]: increase in the amplitude of the amide I band
binding to FGFR2^∂23-Y328D [3]: failed to bind
